Experimental data from patent publication US12618847B2 (Purdue Research Foundation, priority 2020, dated 2026).
Where no end group is shown, it is not given here. [ ]: non-standard residue; d: D form. Phe(4-Cl) = N[C@@H](Cc1ccc(Cl)cc1)C(=O)O

Columns and labels:
[1] = molecular target: 20S CP (Homo sapiens, UniProt P20618+P28074); assay: Fluorescence hydrolysis of probes by purified 20S CP (plate reader); assay type: biochemical; settings: 30 μM probe
Protocol: The peptide recognition sequence used was based on the commercially available 4-mer AMC probe (FIG. 1A), specifically Leu-Leu-Val-Tyr (SEQ ID NO: 1), to generate TAS1 (FIG. 1B). To determine if TAS1 had any enhanced sensitivity, the two probes were compared under the same conditions with purified 20S CP. Briefly, the probes were incubated in triplicate at 10 and 30 μM with 9 nM […] at 37° C. The change in fluorescence was monitored for two hours and the endpoint values were averaged and graphed for comparison (FIG. 1C). Because the two fluorophores have different excitation and emission wavelengths, the two experiments were performed separately but using the same conditions for the plate reader (i.e. gain, number of flashes, settling time, etc.). […] Since, unlike Suc-LLVY-AMC (SEQ ID NO: 1), TAS1 has the potential to have more than one cleavage site which could result in an increase in fluorescence (on either side of Rh110), we confirmed that the increase in signal is only from the recognition and cleavage of the peptide at the Tyr moiety by analyzing the 30 μM TAS1 samples by LC/MS (FIG. 2).
With these new peptide sequences in hand, we returned to incorporating the Rh110-peptoid moiety and to compare the cleavage of TAS1-3 with the 20S CP. We incubated all three probes at various concentrations with 9 nM 20S CP and monitored the change in fluorescence using a microplate reader. […] In order to compare the three probes, we fit a linear regression for the points from 10-60 min for 30 μM of each probe to obtain a rate for the change in fluorescence (Table 1). Of the three, TAS1 was hydrolyzed the quickest, although the slope for TAS2 was similar. […] To confirm that the change in fluorescence was due to amide bond cleavage at the expected site on the peptide, we analyzed the samples at a concentration of 30 μM by LC/MS (FIG. 3).

[2] = system: A549 cells; assay: Probe cleavage in live A549 cells with or without MG-132 pretreatment; assay type: cell-based; settings: 10 μM probe, 5,000 cells/well, 90 min
Protocol: We next sought to determine if the TAS probes would be suitable for cell-based assays. To accomplish this, A549 cells were plated at a density of 5,000 cells/well in a black 96 well plate with a black bottom. After allowing the cells to adhere to the plate, the samples were washed with PBS three times then dosed with 10 μM of each probe in modified KRBH buffer. The change in fluorescence was recorded on a microplate reader for 90 min. After allowing the signal to equilibrate for […], each sample was set to zero and the future time points were scaled accordingly. As was done with the biochemical data, a linear regression was fit to each set of data. From the slope, it is observed that the rate for TAS2 was the highest. To determine the in-cell selectivity, a set of samples pretreated with MG-132 (10 μM), a proteasome inhibitor, was included for each probe. These samples were pre-incubated with MG-132 in cell culture media for one hour before washing with PBS and dosing with each probe in modified KRBH buffer. […] To ensure this decrease was not a consequence of cell death, cells were treated in the same way and analyzed using Cell-Titer Glo.

[3] = system: A498; assay: TAS2 rate of hydrolysis in live cells; assay type: cell-based; settings: A498, TAS2 10 μM, 5,000 cells/well
Protocol: (§1) To compare these cells lines, each was plated at the same density of 5,000 cells/well in a black 96 well plate—for adherent cells lines A498, SK-MEL-2, MEL-92.1, SH-SY5Y and HEK293T, the cells were allowed to adhere overnight before using in the assay; MM.1R cells were plated and used directly after. Samples were incubated with either DMSO or TAS2 (10 μM) for 15 min, washed with PBS three times before putting the plate in a microplate reader to record the fluorescence intensity over 90 min. The experiment was performed in technical triplicate and experimental duplicate for each cell line and the rate of hydrolysis of TAS-2 was determined, Table 2.

[4] = system: HEK-293T; assay: TAS2 rate of hydrolysis in live cells; assay type: cell-based; settings: TAS2 10 μM, 5,000 cells/well
Protocol: as §1

[5] = system: MEL-92.1; assay: TAS2 rate of hydrolysis in live cells; assay type: cell-based; settings: MEL-92.1, TAS2 10 μM, 5,000 cells/well
Protocol: as §1

[6] = system: MM.1R; assay: TAS2 rate of hydrolysis in live cells; assay type: cell-based; settings: TAS2 10 μM, 5,000 cells/well
Protocol: as §1

[7] = system: SH-SY5Y; assay: TAS2 rate of hydrolysis in live cells; assay type: cell-based; settings: TAS2 10 μM, 5,000 cells/well
Protocol: as §1

[8] = system: SK-MEL-2; assay: TAS2 rate of hydrolysis in live cells; assay type: cell-based; settings: SK-MEL-2, TAS2 10 μM, 5,000 cells/well
Protocol: as §1

- Rate of Hydrolysis ([1]; 9 nM purified 20S CP, linear regression 10-60 min): 63.8 ΔRFU/min
Substance: TAS2: Rh110-based peptide/peptoid hybrid probe with Phe(4-Cl) as Tyr substitute (LLV[Phe(4-Cl)]; also: Rh110-based probe, place not given here, peptide/peptoid hybrid)
- Cleavage products after incubation with 20S CP (LC/MS) ([1]; LC/MS): only produced the expected cleavage products
- Rate of probe cleavage in A549 cells (slope) [2]: highest
- Rate of Hydrolysis [3]: 39.6 ± 4.8 ΔRFU/min
- Rate of Hydrolysis [4]: 6.7 ± 3.2 ΔRFU/min
- Rate of Hydrolysis [5]: 16.4 ± 2.6 ΔRFU/min
- Rate of Hydrolysis [6]: 81.6 ± 25.5 ΔRFU/min
- Rate of Hydrolysis [7]: 5.8 ± 0.4 ΔRFU/min
- Rate of Hydrolysis [8]: 12.1 ± 1.3 ΔRFU/min
